Results reported in patent US10167262B2, “Herbicidal substituted 3-arylpyrazoles” (FMC CORPORATION, priority 2014, dated 2019).

Columns and labels:
Assay in all cases: Test C pre-/postemergence greenhouse test, plant response rating 0-100
Assay type in all cases: in vivo
soybean (Glycine max) = settings: Postemergence; for Plant response rating, Soybean: scale 0 to 100
Method in brief: (§1)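 Visual rating vs controls after 13–15 d greenhouse; 0 = no effect, 100 = complete control. Pre: seeds in loam/sand, treated at planting. Post: seedlings 2–18 cm (1–4 leaf) in peat-based mix. Compounds in surfactant-containing non-phytotoxic solvent.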

[1] = tested on: yellow nutsedge (Cyperus esculentus); settings: Postemergence; for Plant response rating, Nutsedge, Yellow: scale 0 to 100
Method in brief: as §1

[2] = tested on: large (Lg) crabgrass (Digitaria sanguinalis); settings: Postemergence; for Plant response rating, Crabgrass, Large: scale 0 to 100
Method in brief: as §1

[3] = tested on: velvetleaf (Abutilon theophrasti); settings: Postemergence; for Plant response rating, Velvetleaf: scale 0 to 100
Method in brief: as §1

[4] = tested on: winter wheat (Triticum aestivum); settings: Postemergence; for Plant response rating, Wheat: scale 0 to 100
Method in brief: as §1

[5] = tested on: Italian ryegrass (Lolium multiflorum); settings: Postemergence; for Plant response rating, Ryegrass, Italian: scale 0 to 100
Method in brief: as §1

[6] = tested on: giant foxtail (Setaria faberii); settings: Postemergence; for Plant response rating, Foxtail, Giant: scale 0 to 100
Method in brief: as §1

[7] = tested on: blackgrass (Alopecurus myosuroides); settings: Postemergence; for Plant response rating, Blackgrass: scale 0 to 100
Method in brief: as §1

[8] = tested on: lambsquarters (Chenopodium album); settings: Postemergence; for Plant response rating, Lambsquarters: scale 0 to 100
Method in brief: as §1

corn (Zea mays) = settings: Postemergence; for Plant response rating, Corn: scale 0 to 100
Method in brief: as §1

[9] = tested on: johnsongrass (Sorghum halepense); settings: Postemergence; for Plant response rating, Johnsongrass: scale 0 to 100
Method in brief: as §1

[10] = tested on: ragweed (common ragweed, Ambrosia elatior); settings: Postemergence; for Plant response rating, Ragweed: scale 0 to 100
Method in brief: as §1

[11] = tested on: pigweed (Amaranthus retroflexus); settings: Postemergence; for Plant response rating, Pigweed: scale 0 to 100
Method in brief: as §1

Fc1cccc(NN=C(c2ccccc2)c2c[nH]nc2-c2cc(Cl)cc(Cl)c2)c1 [Compound 58]
70: Plant response rating, Velvetleaf ([3]; 250 g ai/ha) | Plant response rating (0 to 100), Lambsquarters ([8]; 62 g ai/ha)
75: Plant response rating, Velvetleaf ([3]; 500 g ai/ha)
25: Plant response rating (0 to 100), Johnsongrass ([9]; 125 g ai/ha) | Plant response rating, Johnsongrass ([9]; 250 g ai/ha) | Plant response rating, Johnsongrass ([9]; 500 g ai/ha)
50: Plant response rating, Ragweed ([10]; 250 g ai/ha)
40: Plant response rating (0 to 100), Ragweed ([10]; 125 g ai/ha)
0: Plant response rating (0 to 100), Soybean (soybean (Glycine max); 62 g ai/ha) | Plant response rating (0 to 100), Nutsedge, Yellow ([1]; 62 g ai/ha) | Plant response rating (0 to 100), Nutsedge, Yellow ([1]; 125 g ai/ha) | Plant response rating, Nutsedge, Yellow ([1]; 250 g ai/ha) | Plant response rating, Nutsedge, Yellow ([1]; 500 g ai/ha) | Plant response rating (0 to 100), Wheat ([4]; 62 g ai/ha) | Plant response rating (0 to 100), Wheat ([4]; 125 g ai/ha) | Plant response rating, Wheat ([4]; 250 g ai/ha) | Plant response rating, Wheat ([4]; 500 g ai/ha) | Plant response rating (0 to 100), Ryegrass, Italian ([5]; 62 g ai/ha) | Plant response rating (0 to 100), Ryegrass, Italian ([5]; 125 g ai/ha) | Plant response rating, Ryegrass, Italian ([5]; 250 g ai/ha) | Plant response rating, Ryegrass, Italian ([5]; 500 g ai/ha) | Plant response rating (0 to 100), Foxtail, Giant ([6]; 62 g ai/ha) | Plant response rating (0 to 100), Foxtail, Giant ([6]; 125 g ai/ha) | Plant response rating, Foxtail, Giant ([6]; 250 g ai/ha) | Plant response rating (0 to 100), Blackgrass ([7]; 62 g ai/ha) | Plant response rating (0 to 100), Blackgrass ([7]; 125 g ai/ha) | Plant response rating, Blackgrass ([7]; 250 g ai/ha) | Plant response rating, Blackgrass ([7]; 500 g ai/ha) | Plant response rating (0 to 100), Corn (corn (Zea mays); 62 g ai/ha) | Plant response rating (0 to 100), Johnsongrass ([9]; 62 g ai/ha)
5: Plant response rating (0 to 100), Soybean (soybean (Glycine max); 125 g ai/ha) | Plant response rating (0 to 100), Crabgrass, Large ([2]; 62 g ai/ha) | Plant response rating (0 to 100), Crabgrass, Large ([2]; 125 g ai/ha) | Plant response rating, Crabgrass, Large ([2]; 250 g ai/ha) | Plant response rating, Crabgrass, Large ([2]; 500 g ai/ha) | Plant response rating, Foxtail, Giant ([6]; 500 g ai/ha) | Plant response rating (0 to 100), Corn (corn (Zea mays); 125 g ai/ha) | Plant response rating, Corn (corn (Zea mays); 250 g ai/ha) | Plant response rating, Corn (corn (Zea mays); 500 g ai/ha)
100: Plant response rating (0 to 100), Lambsquarters ([8]; 125 g ai/ha) | Plant response rating, Lambsquarters ([8]; 250 g ai/ha) | Plant response rating, Lambsquarters ([8]; 500 g ai/ha) | Plant response rating (0 to 100), Pigweed ([11]; 62 g ai/ha) | Plant response rating (0 to 100), Pigweed ([11]; 125 g ai/ha) | Plant response rating, Pigweed ([11]; 250 g ai/ha) | Plant response rating, Pigweed ([11]; 500 g ai/ha)
10: Plant response rating, Soybean (soybean (Glycine max); 250 g ai/ha) | Plant response rating, Soybean (soybean (Glycine max); 500 g ai/ha) | Plant response rating (0 to 100), Ragweed ([10]; 62 g ai/ha)
65: Plant response rating (0 to 100), Velvetleaf ([3]; 125 g ai/ha) | Plant response rating, Ragweed ([10]; 500 g ai/ha)
60: Plant response rating (0 to 100), Velvetleaf ([3]; 62 g ai/ha)

C=CCn1cc(C(=O)c2ccccc2)c(-c2cc(Cl)cc(Cl)c2)n1 [Compound 60]
100: Plant response rating, Pigweed ([11]; 250 g ai/ha)
60: Plant response rating, Lambsquarters ([8]; 250 g ai/ha) | Plant response rating (0 to 100), Pigweed ([11]; 62 g ai/ha)
30: Plant response rating (0 to 100), Ragweed ([10]; 62 g ai/ha) | Plant response rating (0 to 100), Ragweed ([10]; 125 g ai/ha)
70: Plant response rating (0 to 100), Velvetleaf ([3]; 62 g ai/ha) | Plant response rating (0 to 100), Velvetleaf ([3]; 125 g ai/ha)
5: Plant response rating (0 to 100), Soybean (soybean (Glycine max); 62 g ai/ha) | Plant response rating (0 to 100), Soybean (soybean (Glycine max); 125 g ai/ha) | Plant response rating, Soybean (soybean (Glycine max); 250 g ai/ha) | Plant response rating (0 to 100), Crabgrass, Large ([2]; 125 g ai/ha) | Plant response rating, Crabgrass, Large ([2]; 250 g ai/ha) | Plant response rating (0 to 100), Foxtail, Giant ([6]; 62 g ai/ha) | Plant response rating (0 to 100), Foxtail, Giant ([6]; 125 g ai/ha) | Plant response rating, Foxtail, Giant ([6]; 250 g ai/ha) | Plant response rating (0 to 100), Lambsquarters ([8]; 62 g ai/ha) | Plant response rating (0 to 100), Corn (corn (Zea mays); 31 g ai/ha) | Plant response rating (0 to 100), Corn (corn (Zea mays); 62 g ai/ha) | Plant response rating (0 to 100), Corn (corn (Zea mays); 125 g ai/ha) | Plant response rating, Corn (corn (Zea mays); 250 g ai/ha) | Plant response rating (0 to 100), Johnsongrass ([9]; 125 g ai/ha) | Plant response rating, Johnsongrass ([9]; 250 g ai/ha)
35: Plant response rating, Ragweed ([10]; 250 g ai/ha)
65: Plant response rating (0 to 100), Pigweed ([11]; 125 g ai/ha)
40: Plant response rating (0 to 100), Lambsquarters ([8]; 125 g ai/ha)
80: Plant response rating, Velvetleaf ([3]; 250 g ai/ha)
0: Plant response rating (0 to 100), Nutsedge, Yellow ([1]; 62 g ai/ha) | Plant response rating (0 to 100), Nutsedge, Yellow ([1]; 125 g ai/ha) | Plant response rating, Nutsedge, Yellow ([1]; 250 g ai/ha) | Plant response rating (0 to 100), Crabgrass, Large ([2]; 31 g ai/ha) | Plant response rating (0 to 100), Crabgrass, Large ([2]; 62 g ai/ha) | Plant response rating (0 to 100), Wheat ([4]; 62 g ai/ha) | Plant response rating (0 to 100), Wheat ([4]; 125 g ai/ha) | Plant response rating, Wheat ([4]; 250 g ai/ha) | Plant response rating (0 to 100), Ryegrass, Italian ([5]; 62 g ai/ha) | Plant response rating (0 to 100), Ryegrass, Italian ([5]; 125 g ai/ha) | Plant response rating, Ryegrass, Italian ([5]; 250 g ai/ha) | Plant response rating (0 to 100), Foxtail, Giant ([6]; 31 g ai/ha) | Plant response rating (0 to 100), Blackgrass ([7]; 31 g ai/ha) | Plant response rating (0 to 100), Blackgrass ([7]; 62 g ai/ha) | Plant response rating (0 to 100), Blackgrass ([7]; 125 g ai/ha) | Plant response rating, Blackgrass ([7]; 250 g ai/ha) | Plant response rating (0 to 100), Johnsongrass ([9]; 62 g ai/ha)
